Measured values: ChEMBL document CHEMBL1932976, “Synthesis of novel 1,3-diaryl pyrazole derivatives bearing rhodanine-3-fatty acid moieties as potential antibacterial agents” (2012)
Values after ≈ are worked out from the molar mass of the structure shown.

Experiments:
Format in all cases: functional
Staphylococcus aureus [1] = assay: Antibacterial activity against Staphylococcus aureus RN4220 after 20 hrs by twofold serial dilution technique; conditions: RN4220, 20 h
Staphylococcus aureus [2] = assay: Antibacterial activity against Staphylococcus aureus KCTC 503 after 20 hrs by twofold serial dilution technique; conditions: KCTC 503, 20 h
Escherichia coli [3] = assay: Antibacterial activity against Escherichia coli CCARM 1924 after 20 hrs by twofold serial dilution technique; conditions: CCARM 1924, 20 h
Escherichia coli [4] = assay: Antibacterial activity against Escherichia coli CCARM 1356 after 20 hrs by twofold serial dilution technique; conditions: CCARM 1356, 20 h
Staphylococcus aureus [5] = assay: Antibacterial activity against methicillin-resistant Staphylococcus aureus CCARM 3167 after 20 hrs by twofold serial dilution technique; conditions: CCARM 3167, 20 h
Staphylococcus aureus [6] = assay: Antibacterial activity against methicillin-resistant Staphylococcus aureus CCARM 3506 after 20 hrs by twofold serial dilution technique; conditions: CCARM 3506, 20 h
Staphylococcus aureus [7] = assay: Antibacterial activity against quinolone-resistant Staphylococcus aureus CCARM 3505 after 20 hrs by twofold serial dilution technique; conditions: CCARM 3505, 20 h
Staphylococcus aureus [8] = assay: Antibacterial activity against quinolone-resistant Staphylococcus aureus CCARM 3519 after 20 hrs by twofold serial dilution technique; conditions: CCARM 3519, 20 h

| Compound | MIC (Staphylococcus aureus [1]) | MIC (Staphylococcus aureus [2]) | MIC (Escherichia coli [3]) | MIC (Escherichia coli [4]) | MIC (Staphylococcus aureus [5]) | MIC (Staphylococcus aureus [6]) | MIC (Staphylococcus aureus [7]) | MIC (Staphylococcus aureus [8]) |
| --- | --- | --- | --- | --- | --- | --- | --- | --- |
| O=C(O)CN1C(=O)/C(=C/c2cn(-c3ccccc3)nc2-c2cccc(Cl)c2)SC1=S | 16 µg/mL (≈ 35.1 µM) | > 64 µg/mL | > 64 µg/mL | > 64 µg/mL | 16 µg/mL (≈ 35.1 µM) | 32 µg/mL (≈ 70.2 µM) | 16 µg/mL (≈ 35.1 µM) | 64 µg/mL (≈ 140 µM) |
| COc1ccc(-c2nn(-c3ccccc3)cc2/C=C2\SC(=S)N(CC(=O)O)C2=O)cc1 | > 64 µg/mL | > 64 µg/mL | > 64 µg/mL | > 64 µg/mL |  |  |  |  |
| O=C(O)CN1C(=O)/C(=C/c2cn(-c3ccccc3)nc2-c2cccc(Br)c2)SC1=S | 8 µg/mL (≈ 16 µM) | 32 µg/mL (≈ 63.9 µM) | > 64 µg/mL | > 64 µg/mL | 8 µg/mL (≈ 16 µM) | 16 µg/mL (≈ 32 µM) | 16 µg/mL (≈ 32 µM) | 64 µg/mL (≈ 128 µM) |
| O=C(O)CN1C(=O)/C(=C/c2cn(-c3ccccc3)nc2-c2ccccc2)SC1=S | 64 µg/mL (≈ 152 µM) | 64 µg/mL (≈ 152 µM) | > 64 µg/mL | > 64 µg/mL | 32 µg/mL (≈ 75.9 µM) | 32 µg/mL (≈ 75.9 µM) | 32 µg/mL (≈ 75.9 µM) | 32 µg/mL (≈ 75.9 µM) |
| O=C(O)CN1C(=O)/C(=C/c2cn(-c3ccccc3)nc2-c2ccc(Cl)cc2Cl)SC1=S | 8 µg/mL (≈ 16.3 µM) | 8 µg/mL (≈ 16.3 µM) | > 64 µg/mL | > 64 µg/mL | 4 µg/mL (≈ 8.16 µM) | 4 µg/mL (≈ 8.16 µM) | 8 µg/mL (≈ 16.3 µM) | 8 µg/mL (≈ 16.3 µM) |
| O=C(O)CN1C(=O)/C(=C/c2cn(-c3ccccc3)nc2-c2ccc(F)cc2)SC1=S | > 64 µg/mL | > 64 µg/mL | > 64 µg/mL | > 64 µg/mL |  |  |  |  |
| O=C(O)CN1C(=O)/C(=C/c2cn(-c3ccccc3)nc2-c2ccccc2F)SC1=S | 64 µg/mL (≈ 146 µM) | 64 µg/mL (≈ 146 µM) | > 64 µg/mL | > 64 µg/mL | 64 µg/mL (≈ 146 µM) | 64 µg/mL (≈ 146 µM) | 64 µg/mL (≈ 146 µM) | 64 µg/mL (≈ 146 µM) |
| O=C(O)CN1C(=O)/C(=C/c2cn(-c3ccccc3)nc2-c2ccc(Br)cc2)SC1=S | 8 µg/mL (≈ 16 µM) | 8 µg/mL (≈ 16 µM) | > 64 µg/mL | > 64 µg/mL | 8 µg/mL (≈ 16 µM) | 8 µg/mL (≈ 16 µM) | 8 µg/mL (≈ 16 µM) | 8 µg/mL (≈ 16 µM) |
| COc1cccc(-c2nn(-c3ccccc3)cc2/C=C2\SC(=S)N(CC(=O)O)C2=O)c1 | 64 µg/mL (≈ 142 µM) | 64 µg/mL (≈ 142 µM) | > 64 µg/mL | > 64 µg/mL | 32 µg/mL (≈ 70.9 µM) | 64 µg/mL (≈ 142 µM) | 64 µg/mL (≈ 142 µM) | 64 µg/mL (≈ 142 µM) |
| O=C(O)CN1C(=O)/C(=C/c2cn(-c3ccccc3)nc2-c2ccccc2Cl)SC1=S | 32 µg/mL (≈ 70.2 µM) | 32 µg/mL (≈ 70.2 µM) | > 64 µg/mL | > 64 µg/mL | 16 µg/mL (≈ 35.1 µM) | 32 µg/mL (≈ 70.2 µM) | 32 µg/mL (≈ 70.2 µM) | 32 µg/mL (≈ 70.2 µM) |
| O=C(O)CN1C(=O)/C(=C/c2cn(-c3ccccc3)nc2-c2ccc([N+](=O)[O-])cc2)SC1=S | > 64 µg/mL | > 64 µg/mL | > 64 µg/mL | > 64 µg/mL |  |  |  |  |
| Cc1ccc(-c2nn(-c3ccccc3)cc2/C=C2\SC(=S)N(CC(=O)O)C2=O)c(C)c1 | 16 µg/mL (≈ 35.6 µM) | 16 µg/mL (≈ 35.6 µM) | > 64 µg/mL | > 64 µg/mL | 16 µg/mL (≈ 35.6 µM) | 16 µg/mL (≈ 35.6 µM) | 16 µg/mL (≈ 35.6 µM) | 16 µg/mL (≈ 35.6 µM) |
| O=C(O)CN1C(=O)/C(=C/c2cn(-c3ccccc3)nc2-c2ccc3ccccc3c2)SC1=S | > 64 µg/mL | > 64 µg/mL | > 64 µg/mL | > 64 µg/mL |  |  |  |  |
| O=C(O)CN1C(=O)/C(=C/c2cn(-c3ccccc3)nc2-c2ccc(Cl)cc2)SC1=S | 8 µg/mL (≈ 17.5 µM) | 8 µg/mL (≈ 17.5 µM) | > 64 µg/mL | > 64 µg/mL | 8 µg/mL (≈ 17.5 µM) | 8 µg/mL (≈ 17.5 µM) | 8 µg/mL (≈ 17.5 µM) | 16 µg/mL (≈ 35.1 µM) |
| COc1ccccc1-c1nn(-c2ccccc2)cc1/C=C1\SC(=S)N(CC(=O)O)C1=O | > 64 µg/mL | > 64 µg/mL | > 64 µg/mL | > 64 µg/mL |  |  |  |  |
| O=C(O)CCN1C(=O)/C(=C/c2cn(-c3ccccc3)nc2-c2ccc(Cl)cc2)SC1=S | 8 µg/mL (≈ 17 µM) | 16 µg/mL (≈ 34 µM) | > 64 µg/mL | > 64 µg/mL | 4 µg/mL (≈ 8.51 µM) | 4 µg/mL (≈ 8.51 µM) | 4 µg/mL (≈ 8.51 µM) | 8 µg/mL (≈ 17 µM) |
| O=C(O)CCN1C(=O)/C(=C/c2cn(-c3ccccc3)nc2-c2ccc(Cl)cc2Cl)SC1=S | 8 µg/mL (≈ 15.9 µM) | 4 µg/mL (≈ 7.93 µM) | > 64 µg/mL | > 64 µg/mL | 4 µg/mL (≈ 7.93 µM) | 4 µg/mL (≈ 7.93 µM) | 4 µg/mL (≈ 7.93 µM) | 4 µg/mL (≈ 7.93 µM) |
| O=C(O)CCCN1C(=O)/C(=C/c2cn(-c3ccccc3)nc2-c2ccc(Cl)cc2Cl)SC1=S | 8 µg/mL (≈ 15.4 µM) | 4 µg/mL (≈ 7.72 µM) | > 64 µg/mL | > 64 µg/mL | 4 µg/mL (≈ 7.72 µM) | 4 µg/mL (≈ 7.72 µM) | 4 µg/mL (≈ 7.72 µM) | 4 µg/mL (≈ 7.72 µM) |
| O=C(O)CCCCN1C(=O)/C(=C/c2cn(-c3ccccc3)nc2-c2ccc(Cl)cc2)SC1=S | > 64 µg/mL | > 64 µg/mL | > 64 µg/mL | > 64 µg/mL |  |  |  |  |
| O=C(O)CCCCN1C(=O)/C(=C/c2cn(-c3ccccc3)nc2-c2ccc(Cl)cc2Cl)SC1=S | 4 µg/mL (≈ 7.51 µM) | 4 µg/mL (≈ 7.51 µM) | > 64 µg/mL | > 64 µg/mL | 2 µg/mL (≈ 3.76 µM) | 2 µg/mL (≈ 3.76 µM) | 2 µg/mL (≈ 3.76 µM) | 2 µg/mL (≈ 3.76 µM) |
| O=C(O)CCCCCN1C(=O)/C(=C/c2cn(-c3ccccc3)nc2-c2ccc(Cl)cc2)SC1=S | > 64 µg/mL | > 64 µg/mL | > 64 µg/mL | > 64 µg/mL |  |  |  |  |
| O=C(O)CCCCCN1C(=O)/C(=C/c2cn(-c3ccccc3)nc2-c2ccc(Cl)cc2Cl)SC1=S | 32 µg/mL (≈ 58.6 µM) | 8 µg/mL (≈ 14.6 µM) | > 64 µg/mL | > 64 µg/mL | 4 µg/mL (≈ 7.32 µM) | 32 µg/mL (≈ 58.6 µM) | 32 µg/mL (≈ 58.6 µM) | 4 µg/mL (≈ 7.32 µM) |
| Cc1ccc(-c2nn(-c3ccccc3)cc2/C=C2\SC(=S)N(CC(=O)O)C2=O)cc1 | 16 µg/mL (≈ 36.7 µM) | > 64 µg/mL | > 64 µg/mL | > 64 µg/mL | 16 µg/mL (≈ 36.7 µM) | 16 µg/mL (≈ 36.7 µM) | 16 µg/mL (≈ 36.7 µM) | 64 µg/mL (≈ 147 µM) |
| O=C(O)CCCN1C(=O)/C(=C/c2cn(-c3ccccc3)nc2-c2ccc(Cl)cc2)SC1=S | 8 µg/mL (≈ 16.5 µM) | 4 µg/mL (≈ 8.26 µM) | > 64 µg/mL | > 64 µg/mL | 4 µg/mL (≈ 8.26 µM) | 4 µg/mL (≈ 8.26 µM) | 4 µg/mL (≈ 8.26 µM) | 4 µg/mL (≈ 8.26 µM) |
| CCn1cc(C(=O)O)c(=O)c2cc(F)c(N3CCNCC3)cc21 [NORFLOXACIN] | 2 µg/mL (≈ 6.26 µM) | 2 µg/mL (≈ 6.26 µM) | 16 µg/mL (≈ 50.1 µM) | 16 µg/mL (≈ 50.1 µM) | 8 µg/mL (≈ 25.1 µM) | 4 µg/mL (≈ 12.5 µM) | > 64 µg/mL | > 64 µg/mL |
| Cc1onc(-c2ccccc2)c1C(=O)N[C@@H]1C(=O)N2[C@@H]1SC(C)(C)[C@@H]2C(=O)O [OXACILLIN] | 1 µg/mL (≈ 2.49 µM) | 1 µg/mL (≈ 2.49 µM) | > 64 µg/mL | > 64 µg/mL | > 64 µg/mL | > 64 µg/mL | 1 µg/mL (≈ 2.49 µM) | 1 µg/mL (≈ 2.49 µM) |
